# Measured values from patent US20250382346A1, “NEURONAL PROMOTERS AND USES THEREOF” (priority 2023, published 2025).
# Entries after “also recorded” stand apart in the source; their conditions may differ.
# T1: rM3Ds (Rattus norvegicus, UniProt P08483, A177S/A238G/A489L/DEL261-437/DEL441-478/E258S/I253V/I483M/INS256[…]/K178L/K182A/K255R/K484R/K486H/L173F/L482A/M480V/R171S/R176Q/R179M/S481M/T174R/T181R/T257A/Y148C)
# T1 sequence (P08483 with tags, fused parts or gaps Y148C/R171S/L173F/T174R/R176Q/A177S/K178L/R179M/T181R/K182A/A238G/I253V/K255R/INS256[…]/T257A/E258S/DEL261-437/DEL441-478/M480V/S481M/L482A/I483M/K484R/K486H/A489L): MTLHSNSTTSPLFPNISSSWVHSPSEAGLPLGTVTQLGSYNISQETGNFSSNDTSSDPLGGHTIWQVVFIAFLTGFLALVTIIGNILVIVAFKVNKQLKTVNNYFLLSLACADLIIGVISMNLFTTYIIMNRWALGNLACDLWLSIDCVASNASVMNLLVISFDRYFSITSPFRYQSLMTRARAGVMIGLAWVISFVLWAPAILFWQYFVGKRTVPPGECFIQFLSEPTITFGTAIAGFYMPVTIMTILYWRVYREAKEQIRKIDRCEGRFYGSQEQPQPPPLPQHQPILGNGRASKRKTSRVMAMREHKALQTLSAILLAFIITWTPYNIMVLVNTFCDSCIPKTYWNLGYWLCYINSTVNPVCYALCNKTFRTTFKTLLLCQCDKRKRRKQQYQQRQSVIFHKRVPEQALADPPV
# B1: AAV8R12: AAV8R capsid mutant V183E + N411S; Cap SEQ ID NO: 59 (protein)
# chain: MAADGYLPDWLEDNLSEGIREWWALKPGAPKPKANQQKQDDGRGLVLPGYKYLGPFNGLDKGEPVNAADAAALEHDKAYDQQLQAGDNPYLRYNHADAEFQERLQEDTSFGGNLGRAVFQAKKRVLEPLGLVEEGAKTAPGKKRPVEPSPQRSPDSSTGIGKKGQQPARKRLNFGQTGDSESEPDPQPLGEPPAAPSGVGPNTMAAGGGAPMADNNEGADGVGSSSGNWHCDSTWLGDRVITTSTRTWALPTYNNHLYKQISNGTSGGATNDNTYFGYSTPWGYFDFNRFHCHFSPRDWQRLINNNWGFRPKRLSFKLFNIQVKEVTQNEGTKTIANNLTSTIQVFTDSEYQLPYVLGSAHQGCLPPFPADVFMIPQYGYLTLNDGSQAVGRSSFYCLEYFPSQMLRTGNSFQFTYTFEDVPFHSSYAHSQSLDRLMNPLIDQYLYYLSRTQTTGGTANTQTLGFSQGGPNTMANQAKNWLPGPCYRQQRVSTTTGQNNNSNFAWTAGTKYHLNGRNSLANPGIAMATHKDDEERFFPSNGILIFGKQNAARDNADYSDVMLTSEEEIKTTNPVATEEYGIVADNLQRGNLADQDYTKTARQAATADVNSQGALPGMVWQNRDVYLQGPIWAKIPHTDGNFHPSPLMGGFGLKHPPPQILIKNTPVPADPPTTFNQSKLNSFITQYSTGQVSVEIEWELQKENSKRWNPEIQYTSNYYKSINVDFAVNTEGVYSEPRPIGTRYLTRNL
# Tests used:
# [1] = biological target: T1, rM3Ds
# Experimental: Monkeys were continuously monitored by veterinarians after lesion.
# Dyskinesia score criteria were: 0: Absent. 1: Mild, fleeting, present <30% of the observation period.
# Each block included ten continuous trials.
# Customized surface EMG electrodes were used for EMG recordings. […] The recording procedure was conducted immediately after DCZ infusions.
# [2] = Blood test of liver- and kidney-related factors during DCZ treatment; format: in vivo, macaques; settings: n=3 monkeys
# Source text: FIG. 36A-36F depict effects of D1-MSN activation on dyskinesia-like behavior and health state-related blood factors in parkinsonian macaques. FIG. 36A illustrates quantitation of dyskinesia score at 2 months, 4 months, and 8 months after treatment with DCZ. n=3 monkeys per group.
# Intriguingly, many of the symptoms were greatly reversed after systemic deschloroclozapine (DCZ) administration. DCZ is a potent brain-penetrable agonist for rM3Ds with reduced off-targeting binding compared to CNO, and was administered to activate the DREADD system in the macaque brain.
# [3] = biological target: T1, rM3Ds; test: In vivo electrophysiological recording in caudate/putamen of anesthetized macaques, rM3Ds; design: 2A-EYFP (C); expressed in transfected cells; host or cells: neurons (striatal D1-MSNs) of mice or cynomolgus macaques, transduced in vivo by nigral AAV8R12-G88P7-rM3Ds-2A-EYFP; settings: MPP+ lesioned macaques, CNO 36 cells, DCZ 31 cells
# Experimental: • Electrophysiological recording was performed through a recording chamber while the monkey was anesthetized. Neural responses were recorded by a 16-channel linear probe (Plexon Inc, Uprobe) driven by a mechanical microdrive (Alpha Omega, FlexMT). Signals were passed through a head stage (Plexon Inc, HST/16V-G20 LN) and then split and filtered between 300 Hz and 5 kHz to identify spiking activity with an amplifier system (Plexon Inc, OmniPlex). Detected spikes were then sorted by commercially available software (Plexon Inc, Offline Sorter) for further analysis. To quantify the effect of CNO/DCZ injection, neural activity was recorded for 60 minutes following CNO/DCZ injection. The response time-course for each channel was obtained by counting the spikes within every 10-minute window and then normalizing to the maximal.
# To determine the effect of CNO/DCZ injection on the direction of signal change, we performed Pearson correlation between neural responses and time using the ‘corr’ function in Matlab, which generates the correlation coefficient ‘r’ and significant level ‘p’. A neuron was considered to have “Increased” activity when r>0 and p<0.05; and considered to have “Decreased” activity when r<0 and p<0.05. Otherwise, neurons were considered to be “Unchanged” in their neural activities. The responses of all increased neurons were then averaged after being normalized by the maximal response (Crowe et al., 2014; Dai and Wang, 2018; Hirokawa et al., 2019) following CNO/DCZ injection, and then plotted as a function of time to generate the normalized population response.
# To enable in-vivo verification of the strategy via an opto-tagging approach, AAV virus encoding opsin ChR2 (AAV9-EF1α-DIO-ChR2-EYFP) was injected into the striatum with simultaneous nigral infusion of a retrograde AAV encoding Cre and rM3Ds (AAV8R12-G88P7-HA-rM3Ds-2A-Cre). A total volume of 27 μl (3 μl×9 sites) and 30 μl (3 μl×10 sites) were injected in the SNr and the striatum, respectively. A recording chamber was implanted above the striatum to allow optical stimulation and electrophysiological recording.
# Optogenetic verification was conducted six weeks after virus injections. A 16-channel linear probe with an embedded optic fiber (Plexon Inc., Uprobe) was used to deliver light stimulation and record neural responses. A mechanical Microdrive (FlexMT, Alpha Omega, Nazareth, Israel) was used to mount and drive the probe. A blue laser (473 nm, Changchun New Industries Tech, MBL-III-473) was used to generate light stimulation, which was controlled by a DAQ board (National Instruments, PCIe-6321) through the MonkeyLogic toolbox (NIMH version).
# Light pulses of 40 Hz that last for 500 ms were used to probe neurons' responses to optical stimulation. […] Responses from these optically identified cells were grouped to generate the normalized population response as a function of time.
# [4] = Locomotion test in naïve macaques (no viral injection); format: in vivo; settings: DCZ 0.3 mg/kg i.m.
# [5] = CSF concentration of DCZ by LC-MS; settings: 24 hours after drug infusion, 0.3 mg/kg i.m.
# [6] = system: striatonigral projection neurons (D1 MSNs); test: Retrograde labeling of striatal MSNs after AAV injection into the SNr, EYFP+ cell counting; format: in vivo, mice
# Experimental: To improve efficiency, multiple rounds of mutations of AAV capsids were performed on a series of different serotypes. Mutations were introduced at three sites in the AAV8 capsid protein to make AAV8R, including N385D, insertion of […] (SEQ ID NO: 31) at position 588, and TS711-7121N. Two additional mutations of V183E and N41 IS were incorporated into the AAV8R12 capsid protein (FIG. 1A). The labeling pattern of the AAV8R12 capsid and G88 promoter combination was determined.
# was inserted at the N587-R588 position; two other point mutations of the AAV2 Cap protein were made to develop rAAV2-retro. Similar mutations were then placed at equivalent positions for four other AAV serotypes (FIGS. 1A-1C and 25, TABLE 1), AAV1/5/6/8 (FIG. 1A). […] When administered into the SNr, 4.86±0.22 times EYFP positive MSNs in mice infected by AAV8R-hSyn-EYFP were observed as compared to those infected by rAAV2-retro-hSyn-EYFP (FIG. 2A-2C).
# Baseline infectivity of rAAV2-retro was approximately 0.2±0.03×10^4 cells per striatal hemisphere (using a hSyn promoter) (TABLE 2). […] Compared to the current standard retrograde AAV, rAAV2-retro, AAV8R12 labeled 7.72±0.78-times more MSNs after nigral delivery (FIG. 2B-2C, TABLE 1). […] The AAV8R12 was generated using the AAV8R plasmid as a template.
# Mice were anesthetized with sodium pentobarbital (Nembutal; 80 mg/kg, i.p.), and then placed into a stereotaxic device (KOPF). Eye cream was applied on both corneas to avoid dehydration. The skull above the targeted areas was thinned with a dental drill and carefully removed. Injections were conducted with a 10 μL syringe connected to a 33-Gauge needle (Neuros; Hamilton), using a microsyringe pump (Legato 130, KD Scientific). A total volume of 200 nL virus was injected into the SNr at a speed of 20 nL/min. The coordinates for the SNr were 3.4 mm posterior, 1.3 mm lateral, 4.8 mm ventral to the bregma.
# Images were acquired using a confocal microscope (Carl Zeiss, LSM880) and an Axiolmager. Z1 microscope with apotome (Carl Zeiss). Brain structures were identified microscopically and in digital photos using a mouse brain atlas. To analyze the number of EYFP+ cells in the striatum, slices from rostral to caudal striatum were used. Every sixth section was analyzed, and numbers of EYFP+ cells were multiplied by six to acquire the approximate total number and mean number of cells per animal. Images were processed using ImageJ (NIH, USA), and final quantifications were independently performed manually by two blinded experimenters.
# [7] = system: MSNs in nucleus accumbens; test: Retrograde labeling of accumbal MSNs after delivery into ventral pallidum or lateral hypothalamus; format: in vivo, mice; settings: stereotaxic delivery into ventral pallidum or lateral hypothalamus
Molecule,alleviation of parkinsonian symptoms during long-term treatment ([1]; DCZ 0.3 mg/kg every other day),"reversal of parkinsonian symptoms (PD score) ([1]; MPP+ macaques with AAV8R12-G88P7-rM3Ds-2A-EYFP, DCZ 0.3 mg/kg i.m., L-Dopa/benserazide 20/5 mg/kg/day oral)","motor skills (hand to mouth movement) ([1]; MPP+ macaques, DCZ treatment)","tremor (EMG) ([1]; MPP+ macaques, DCZ treatment)","dyskinesia-like behaviors (dyskinesia score) ([1]; MPP+ macaques, long-term treatment)",window of efficacy after each dose (alleviating symptoms after drug administration) ([1]; after the drug reached steady-state efficacy (FIG. 24C)),"speed of reversal of symptoms, DCZ compared with levodopa ([1]; initial phase of drug administration)",duration of effect (FIG. 18C) ([1]; n=3 monkeys),"effect of an extended period (4 months) of prior L-Dopa administration on DCZ treatment ([1]; one month washout, then DCZ 2 months)","blood levels of common liver- and kidney-related factors (ALT, AST, GGT, CREA, BUN) [2]",cells in caudate/putamen activated (FIG. 15G) ([3]; saline 17.9%) [%],cells in caudate/putamen inactivated (FIG. 15G) ([3]; saline 33.4%) [%],cells in caudate/putamen unchanged (FIG. 15G) ([3]; saline 48.7%) [%],motor-related behaviors in naïve monkeys [4],DCZ level in cerebrospinal fluid [5],"Labeling Efficiency in Striatonigral Pathway ([6]; AAV8R capsid mutants, numbers of labeled neurons per animal)","EYFP positive / labeled MSNs compared to rAAV2-retro ([6]; after nigral delivery, hSyn-EYFP) [times]","labeled striatonigral projection neurons (FIG. 2C), mean±SEM ([6]; capsid comparison, injection into SNr of wild type mice, n=3 mice per group)","Mean (AAVs with capsid and promoter) ([6]; labeled cells after nigral injection in mice, b188 refers to it as cells per striatal hemisphere, SD and SEM in own columns)",labeling of MSNs in nucleus accumbens [7]
"CN1CCN(C2=Nc3ccccc3Nc3ccccc32)CC1 [DCZ, Deschloroclozapine]",consistent during an 8-month continuous treatment,reversal of canonical parkinsonian symptoms in all tested monkeys; also recorded: comparable efficiency to L-Dopa,significant recovery of motor skills; also recorded: partially restored this motor skill,great reduced or even eliminated; also recorded: removed,dyskinesia-free,at least 24 hours,faster reversal of symptoms than levodopa; also recorded: reached stable efficacy faster than L-Dopa,over 24 hr,did not affect the efficacy of DCZ treatment or the absence of dyskinesia,remained stable,41.9,9.7,48.4,did not alter motor-related behaviors in naïve monkeys,no detectable levels,–,–,–,–,–
B1,–,–,–,–,–,–,–,–,–,–,–,–,–,–,–,+++ (10k-25k),7.72±0.78,16026±1654,16026,robust labeling of MSNs
